# Patent US9579318B2, “Histamine 4 receptor partial agonists, inverse agonists or antagonists for use in treating non-autoimmune uveitis” (UCL BUSINESS PLC, priority 2013, dated 2017)
# What was measured:
# [1] = system: experimental autoimmune uveitis (EAU) in C57B1/6 mice; test: Experimental autoimmune uveitis (EAU) model, therapeutic treatment, histological scoring; format: in vivo; conditions: EAU C57B1/6 mice, disease established, 5 doses, eyes harvested day 19 (FIG. 1)
# From the text: Whilst CD4+T cells are crucial for disease induction, it is now established in the literature (see Dick et al 2012) that tissue resident cells (microglia, macrophages) and infiltrating inflammatory cells (CD11b+granulocytes) contribute to the perpetuation of the inflammation in the C57BL/6 mouse, where evidence of retinal inflammation can be observed up to day 56 post immunization. In our study EAU was induced in C57B1/6 mice using subcutaneous administration of IRBP peptide emulsified in complete Freund's adjuvant (CFA) supplemented with […] mycobacterium, and intraperitoneal immunisation with Pertussis toxin. Clinical signs of EAU disease were monitored using non-invasive retinal fundus imaging (TEFI) until signs of retinal inflammatory disease were observed (usually by day 14). At this point mice were divided into treatment groups. A total of 45 mice were used, with groups as follows: CFA controls n=4; EAU controls n=6; JNJ 7777120 16 mg/kg n=5; 994 10 mg/kg n=5; 994 30 mg/kg n=5; 994 100 mg/kg n=5; 1006 10 mg/kg n=5; 1006 30 mg/kg n=5; 1006 100 mg/kg n=5. Each treatment group of mice received 5 intraperitoneal doses of compound, once per day, until day 19 when eyes were harvested. At this point eyes were processed and fixed, and histological sections were prepared. Histological scoring by light microscopy was done according to established methods (Gegg et al, 2005) where a score of 1.0 reflects inflammatory cells present in the vitreous cavity but not throughout the retinal layers, and the photoreceptor layer is as normal. A score of 2.0 reflects cells within the outer retinal layers, with some granuloma formation. A score of 3.0 reflects cells within the photoreceptor layer, some retinal folding, a focal loss of photoreceptor cells. […] This is an impressive effect since disease was already established. In most treatment studies mice are pretreated with drug prior to inducing EAU.
# [2] = system: endotoxin induced uveitis (EIU) in mice; test: Endotoxin induced uveitis (EIU) model, CD11b+ cells in retina by flow cytometry; format: in vivo; conditions: pretreated with 0.1, 1.0 and 10.0 mM eyedrops twice daily for 3 days before LPS, eyes harvested 24 hours later (FIG. 2)
# Procedure: EIU is a more acute form of anterior uveitis, induced by intraperitoneal immunization with LPS (endotoxin), and clinical signs of uveitis can be observed within 24-48 hours post immunisation. Due to the narrow time frame of disease, in our study mice (n=2 per group) were pretreated with three different concentrations of JNJ777120 compound (0.1, 1.0 and 10.0 mM) given twice daily as eyedrops for 3 days prior to inducing EIU, and eyes harvested 24 hours later. In this study, retinas were dissected from each eye and single cell suspensions prepared for staining with CD11b (to stain for granulocytes), and analysed by flow cytometry, Each eye was kept separate, so results are shown as means of 4 retinae in each group, in comparison with 6 eyes from 3 EIU non-treated control mice.
compound,measurement,setting,value
"CN1CCN(C(=O)c2cc3cc(Cl)ccc3[nH]2)CC1 [JNJ7777120, 1-[(5-chloro-1H-indol-2-yl)carbonyl]-4-methylpiperazine]","histological scores (retinal inflammation, light microscopy)",[1]; 16 mg/kg i.p. once per day,reduced the histological scores to control levels
same,levels of infiltrating granulocytes (numbers of CD11b+ cells in retina),[2],significantly decreased the levels of infiltrating granulocytes
Cc1ccc(CNc2cc(N3CCN(C)CC3)nc(N)n2)cc1.O=C(O)/C=C\C(=O)O [compound 994],"histological scores (retinal inflammation, light microscopy)",[1]; 100 mg/kg i.p. once per day,reduced the histological scores to control levels
CN1CCN(c2cc(NCc3c(Cl)cccc3Cl)nc(N)n2)CC1.O=C(O)/C=C\C(=O)O [compound 1006],"histological scores (retinal inflammation, light microscopy)",[1]; 30 mg/kg i.p. once per day,reduced the histological scores to control levels
